Data reported in patent publication US5336769A, “Xanthine derivatives” (Kyowa Hakko Kogyo Co., Ltd., priority 1992, dated 1994).

How the values were obtained:
dd strain male mice = assay: Acute Toxicity Test, minimum lethal dose (MLD); format: in vivo; settings: oral, mortality 7 days after administration
Excerpt: Compounds 1 and 5 were orally administered to dd strain male mice (body weight: 20±1 g, 3 mice/group). The mortality was observed 7 days after the administration to determine the minimum lethal dose (MLD).

[1] = tested on: scopolamine-induced amnesia models; assay: Anti-dementia effect in scopolamine-induced amnesia models, step-through type passive avoidance (recall trial); format: in vivo, Male Wistar rats; settings: oral, scopolamine 1 mg/kg i.p., 24 h after acquisition trial
Experimental: The effect of Compound (I) on dementia was determined by scopolamine-induced amnesia models (Basic, Clinical, and Therapeutic Aspects of Alzheimer's and Parkinson's Diseases: Vol. 2; T. Nagatsu, et al. edt; pp449; Plenum Press New York; 1990).
[…] The test was performed with a step-through type passive avoidance apparatus (the bright and dark box).
The bright and dark box was made up of a bright compartment (25×25×25 cm) lighted by 4W white fluorescent light and a dark compartment (25×25×25 cm). […] In order to give a foot shock, the electric current (2 mA: 2 sec) may be passed through the grid floor of the dark compartment.
The compound to be tested was suspended in 0.3% aqueous solution of carboxymethyl cellulose (CMC) and the suspension was orally administered 60 minutes before the acquisition trial. Only 0.3% CMC was given to the control group.
Amnesia-inducing treatment was carried out by intraperitoneally administering 1 mg/kg of scopolamine 30 minutes before the following acquisition trial.
The training for acquisition of learning (acquisition trial) was carried out. The rat was introduced into the bright compartment, and after 5 to 10 seconds, the guillotine door was opened. The rat in the bright compartment rapidly moved into the dark compartment. As soon as the whole body of the rat entered the dark compartment, the guillotine door was closed and an electric current of 2 mA was passed through the grid floor for two seconds (foot shock). Immediately after the foot shock, the rat was taken out of the dark compartment.
The test trial for observing the retention and recall of the memory (recall trial) was carried out as follows. Twenty-four hours after the acquisition trial, the rat was placed in the bright compartment and the guillotine door was opened. The length of time before the rat entered the dark compartment (latency) was measured. The latency was measured up to 600 seconds and the latency longer than 600 seconds was recorded as 600 seconds.
In the experiment, the amnesia control group had undergone the amnesia-inducing treatment and the normal control group had not undergone the amnesia-inducing treatment.
The anti-dementia effect was evaluated by Mann Whitney U-test to determine whether there was a significant difference in latency between the test compound treated group and the amnesia control group.

Question: Which “minimum lethal dose (MLD)” value (dd strain male mice) does the source give for `CCCn1c(=O)c2nc(C3CCCC3)[nH]c2n(CCc2ccc(NC(C)=O)cc2)c1=O` [Compound 1, 3-(4-acetylaminophenethyl)-8-cyclopentyl 1-propylxanthine] here?
Answer: The value was > 300 mg/kg.

Question: And the “Recall trial mean reaction latency” value ([1]; 0.02 mg/Kg, 17 animals)?
Answer: Its value is 137.3 ± 44.5 s.

Question: What about the “Recall trial mean reaction latency” value ([1]; 0.08 mg/Kg, 18 animals) of the same compound?
Answer: The value was 174.8 ± 56.1 s.

Question: What about the “Recall trial mean reaction latency” value ([1]; 0.31 mg/Kg, 18 animals) of the same compound?
Answer: Its value is 130.4 ± 38.5 s.

Question: And the “Recall trial mean reaction latency” value ([1]; 1.25 mg/Kg, 17 animals)?
Answer: The value was 170.3 ± 50.4 s.

Question: What about the “Recall trial mean reaction latency” value ([1]; 5.0 mg/Kg, 18 animals) of the same compound?
Answer: Its value is 187.2 ± 50.2 s.

Question: What about the “Recall trial mean reaction latency” value ([1]; 20.0 mg/Kg, 17 animals) of the same compound?
Answer: Its value is 116.2 ± 43.4 s.

Question: How did the “minimum lethal dose (MLD)” value (dd strain male mice) turn out when `CCCn1c(=O)c2[nH]c(C3CCCC3)nc2n(CCc2ccc(NC(=O)C3CCCC3)cc2)c1=O` [Compound 5, 3-[4-(cyclopentanecarbonylamino)-phenethyl]-8-cyclopentyl-1-propylxanthine] was run?
Answer: Its value is > 300 mg/kg.
